Test results published in article PMC12298351, “Novel 3,19-(N-Phenyl-3-(4-fluorophenyl)-pyrazole) Acetal of Andrographolide Promotes Cell Cycle Arrest and Apoptosis in MDA-MB-231 Breast Cancer Cells” (Pharmaceuticals, 2025).

Tests used:
[1] = system: M14; format: cell-based; details: M14, Melanoma
[2] = system: BT-549; format: cell-based; details: BT-549, Breast
[3] = DPPH radical scavenging assay; details: 25 µM test compound, 0.1 mM DPPH, acetonitrile, 30 min
Summary of the method: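 Compounds at 25 µM in acetonitrile mixed 1:2 with 0.1 mM DPPH in acetonitrile, kept 30 min in the dark at room temperature. Absorbance read at 517 nm; % scavenging = (Ac − As)/Ac × 100, Ac being DPPH blank. Ascorbic acid positive control.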

[4] = system: HL-60(TB)
[5] = system: MOLT-4; details: MOLT-4, Leukemia
[6] = system: SR
[7] = system: A549/ATCC
[8] = system: HOP-62
[9] = system: NCI-H23
[10] = system: HCC-2998; details: HCC-2998, Colon
[11] = system: HT29; details: HT29, Colon
[12] = system: KM12; details: KM12, Colon
[13] = system: SW-620; details: SW-620, Colon
[14] = system: SF-268; details: SF-268, CNS
[15] = system: LOX IMVI
[16] = system: MALME-3M; details: Melanoma
[17] = system: SK-MEL-2; details: SK-MEL-2, Melanoma
[18] = system: SK-MEL-28; details: SK-MEL-28, Melanoma
[19] = system: SK-MEL-5; details: SK-MEL-5, Melanoma
[20] = system: IGROV1; details: IGROV1, Ovarian
[21] = system: OVCAR-5; details: OVCAR-5, Ovarian
[22] = system: ACHN
[23] = system: CAKI-1; details: CAKI-1, Renal
[24] = system: DU-145; details: DU-145, Prostate
[25] = system: MCF7; details: MCF7, Breast
[26] = system: MDA-MB-231
[27] = system: T-47D
[28] = system: MDA-MB-468; details: MDA-MB-468, Breast
[29] = read-out: 50% lethal concentration (LC50), Leukemia
[30] = read-out: 50% lethal concentration (LC50)

C=C1CCC2C3(C)COC(c4cn(-c5ccccc5)nc4-c4ccc(Br)cc4)OC3CCC2(C)C1CC=C1C(=O)OCC1O (stereo not shown) [1h]
GI50 [1]: 1.71 µM
Total growth inhibition (TGI) [1]: 3.55 µM
GI50 [2]: 1.47 µM
Total growth inhibition (TGI) [2]: 3.5 µM
% DPPH radical scavenging activity [3]: 57.51%
GI50 ([4]; Leukemia): 0.67 µM
CC50 [4, 29]: > 100 µM
GI50 [5]: 0.61 µM
CC50 [5, 30]: > 100 µM
GI50 ([6]; Leukemia): 1.69 µM
Total growth inhibition (TGI) ([6]; Leukemia): 8.13 µM
CC50 [6, 29]: > 100 µM
Total growth inhibition (TGI) ([7]; Non-Small Cell Lung): 51.6 µM
GI50 ([7]; Non-Small-Cell Lung): 3.1 µM
CC50 ([7]; read-out: 50% lethal concentration (LC50), Non-Small Cell Lung): > 100 µM
Total growth inhibition (TGI) ([8]; HOP-62, Non-Small Cell Lung): 3.83 µM
GI50 ([8]; HOP-62, Non-Small-Cell Lung): 1.8 µM
CC50 ([8]; read-out: 50% lethal concentration (LC50), HOP-62, Non-Small Cell Lung): 8.12 µM
Total growth inhibition (TGI) ([9]; NCI-H23, Non-Small Cell Lung): 3.62 µM
GI50 ([9]; NCI-H23, Non-Small-Cell Lung): 1.71 µM
CC50 ([9]; read-out: 50% lethal concentration (LC50), NCI-H23, Non-Small Cell Lung): 7.67 µM
GI50 [10]: 1.83 µM
Total growth inhibition (TGI) [10]: 3.49 µM
GI50 [11]: 2.16 µM
Total growth inhibition (TGI) [11]: 6.51 µM
CC50 [11, 30]: > 100 µM
GI50 [12]: 1.68 µM
Total growth inhibition (TGI) [12]: 3.68 µM
Total growth inhibition (TGI) [13]: > 100 µM
CC50 [13, 30]: > 100 µM
GI50 [14]: 2.11 µM
Total growth inhibition (TGI) [14]: 4.68 µM
CC50 [14, 30]: 11.5 µM
GI50 ([15]; Melanoma): 1.55 µM
Total growth inhibition (TGI) ([15]; Melanoma): 2.9 µM
CC50 ([15]; read-out: 50% lethal concentration (LC50), Melanoma): 5.41 µM
GI50 [16]: 1.6 µM
Total growth inhibition (TGI) [16]: 3.11 µM
GI50 [17]: 1.76 µM
Total growth inhibition (TGI) [17]: 3.18 µM
GI50 [18]: 1.73 µM
Total growth inhibition (TGI) [18]: 3.3 µM
CC50 [18, 30]: 6.3 µM
GI50 [19]: 1.6 µM
Total growth inhibition (TGI) [19]: 2.96 µM
CC50 [19, 30]: 5.44 µM
GI50 [20]: 1.67 µM
Total growth inhibition (TGI) [20]: 5.16 µM
CC50 [20, 30]: > 100 µM
GI50 [21]: 1.93 µM
Total growth inhibition (TGI) [21]: 5.08 µM
CC50 [21, 30]: > 100 µM
GI50 ([22]; Renal): 2.07 µM
Total growth inhibition (TGI) ([22]; Renal): 4.78 µM
CC50 ([22]; read-out: 50% lethal concentration (LC50), Renal): > 100 µM
GI50 [23]: 1.59 µM
Total growth inhibition (TGI) [23]: 3.49 µM
CC50 [23, 30]: 7.69 µM
GI50 [24]: 1.77 µM
Total growth inhibition (TGI) [24]: 3.59 µM
CC50 [24, 30]: 7.28 µM
GI50 [25]: 1.49 µM
Total growth inhibition (TGI) [25]: 4.81 µM
CC50 [25, 30]: 72 µM
GI50 ([26]; MDA-MB-231, Breast): 1.59 µM
Total growth inhibition (TGI) ([26]; MDA-MB-231/ATCC, Breast): 3.14 µM
CC50 ([26]; read-out: 50% lethal concentration (LC50), MDA-MB-231/ATCC, Breast): 6.19 µM
GI50 ([27]; Breast): 1.18 µM
Total growth inhibition (TGI) ([27]; Breast): 3.13 µM
CC50 ([27]; read-out: 50% lethal concentration (LC50), Breast): 8.33 µM
GI50 [28]: 1.93 µM
Total growth inhibition (TGI) [28]: 3.47 µM
CC50 [28, 30]: 6.23 µM
